Key:
[1] = target: T1, human aldehyde dehydrogenase 2 (ALDH2) (Homo sapiens, UniProt P05091); test: Time-dependent inhibition of ALDH2; type: biochemical; settings: for Time-dependent inhibition of ALDH2 (residual ALDH2 catalytic activity): 10 μmol/L secnidazole
T1 sequence (P05091 18-517): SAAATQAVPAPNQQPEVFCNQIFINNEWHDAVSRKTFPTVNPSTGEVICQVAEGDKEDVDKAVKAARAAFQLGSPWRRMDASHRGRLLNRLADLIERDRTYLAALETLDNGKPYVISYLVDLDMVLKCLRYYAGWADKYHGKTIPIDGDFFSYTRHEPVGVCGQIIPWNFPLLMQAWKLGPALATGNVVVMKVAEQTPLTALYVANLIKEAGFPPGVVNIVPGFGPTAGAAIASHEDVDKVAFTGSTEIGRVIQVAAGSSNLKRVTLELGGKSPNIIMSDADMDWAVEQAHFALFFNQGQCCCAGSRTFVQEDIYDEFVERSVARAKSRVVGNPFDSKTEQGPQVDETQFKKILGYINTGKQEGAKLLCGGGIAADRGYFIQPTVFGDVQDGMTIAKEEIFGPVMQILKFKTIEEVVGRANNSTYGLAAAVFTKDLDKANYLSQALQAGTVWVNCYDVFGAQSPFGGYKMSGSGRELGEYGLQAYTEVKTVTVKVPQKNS

CYP2C8 = target: T2, CYP2C8 (Homo sapiens, UniProt P10632); test: Time-dependent inhibition of CYP isoforms in HLM
T2 sequence (P10632 1-490): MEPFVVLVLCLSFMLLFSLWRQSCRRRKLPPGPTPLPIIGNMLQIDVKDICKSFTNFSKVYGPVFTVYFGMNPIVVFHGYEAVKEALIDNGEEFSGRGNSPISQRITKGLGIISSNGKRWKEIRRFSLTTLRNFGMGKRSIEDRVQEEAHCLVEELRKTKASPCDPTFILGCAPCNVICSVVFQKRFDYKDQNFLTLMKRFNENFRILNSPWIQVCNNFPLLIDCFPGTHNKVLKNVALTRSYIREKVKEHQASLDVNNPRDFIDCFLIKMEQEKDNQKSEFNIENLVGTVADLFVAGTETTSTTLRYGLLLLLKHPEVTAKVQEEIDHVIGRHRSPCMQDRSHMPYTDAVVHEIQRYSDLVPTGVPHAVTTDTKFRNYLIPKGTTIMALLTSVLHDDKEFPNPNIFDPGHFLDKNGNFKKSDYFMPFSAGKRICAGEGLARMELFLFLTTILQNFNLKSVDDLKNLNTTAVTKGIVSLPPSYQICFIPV

CYP2B6 = target: T3, CYP2B6 (Homo sapiens, UniProt P20813); test: Direct inhibition of CYP isoforms in HLM
T3 sequence (P20813 1-491): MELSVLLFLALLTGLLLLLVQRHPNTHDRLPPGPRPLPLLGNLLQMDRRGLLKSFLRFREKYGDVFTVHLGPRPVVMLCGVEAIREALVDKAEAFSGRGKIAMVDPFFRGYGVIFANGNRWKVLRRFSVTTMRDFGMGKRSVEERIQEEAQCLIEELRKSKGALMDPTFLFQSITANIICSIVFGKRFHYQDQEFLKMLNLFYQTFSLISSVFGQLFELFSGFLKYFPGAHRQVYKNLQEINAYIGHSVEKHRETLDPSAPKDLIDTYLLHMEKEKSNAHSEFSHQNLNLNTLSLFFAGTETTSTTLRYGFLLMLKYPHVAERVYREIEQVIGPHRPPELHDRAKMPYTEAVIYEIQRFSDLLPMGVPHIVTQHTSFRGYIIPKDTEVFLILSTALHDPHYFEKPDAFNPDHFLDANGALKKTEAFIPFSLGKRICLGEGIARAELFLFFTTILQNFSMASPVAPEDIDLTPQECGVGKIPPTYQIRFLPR

CYP1A2 = target: T4, CYP1A2 (Homo sapiens, UniProt P05177); test: Time-dependent inhibition of CYP isoforms in HLM
T4 sequence (P05177 1-516): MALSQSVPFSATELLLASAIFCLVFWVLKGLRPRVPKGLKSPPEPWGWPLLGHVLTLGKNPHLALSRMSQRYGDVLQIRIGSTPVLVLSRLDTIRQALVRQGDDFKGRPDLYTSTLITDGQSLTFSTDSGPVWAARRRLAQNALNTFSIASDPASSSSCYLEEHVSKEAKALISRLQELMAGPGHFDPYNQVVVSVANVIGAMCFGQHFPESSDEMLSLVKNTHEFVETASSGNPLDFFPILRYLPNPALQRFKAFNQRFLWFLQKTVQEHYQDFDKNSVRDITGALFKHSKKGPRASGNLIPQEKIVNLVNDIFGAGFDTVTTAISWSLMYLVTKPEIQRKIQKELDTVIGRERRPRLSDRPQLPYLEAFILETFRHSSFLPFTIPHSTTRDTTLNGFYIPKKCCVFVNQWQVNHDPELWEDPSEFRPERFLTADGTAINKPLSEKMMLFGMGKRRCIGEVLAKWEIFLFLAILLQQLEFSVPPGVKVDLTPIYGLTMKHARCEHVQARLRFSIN

[2] = cited from earlier work
[3] = Metabolism of secnidazole in human plasma in vitro; type: in vitro ADME
CYP2A6 = target: T5, CYP2A6 (Homo sapiens, UniProt P11509); test: Time-dependent inhibition of CYP isoforms in HLM
T5 sequence (P11509 1-494): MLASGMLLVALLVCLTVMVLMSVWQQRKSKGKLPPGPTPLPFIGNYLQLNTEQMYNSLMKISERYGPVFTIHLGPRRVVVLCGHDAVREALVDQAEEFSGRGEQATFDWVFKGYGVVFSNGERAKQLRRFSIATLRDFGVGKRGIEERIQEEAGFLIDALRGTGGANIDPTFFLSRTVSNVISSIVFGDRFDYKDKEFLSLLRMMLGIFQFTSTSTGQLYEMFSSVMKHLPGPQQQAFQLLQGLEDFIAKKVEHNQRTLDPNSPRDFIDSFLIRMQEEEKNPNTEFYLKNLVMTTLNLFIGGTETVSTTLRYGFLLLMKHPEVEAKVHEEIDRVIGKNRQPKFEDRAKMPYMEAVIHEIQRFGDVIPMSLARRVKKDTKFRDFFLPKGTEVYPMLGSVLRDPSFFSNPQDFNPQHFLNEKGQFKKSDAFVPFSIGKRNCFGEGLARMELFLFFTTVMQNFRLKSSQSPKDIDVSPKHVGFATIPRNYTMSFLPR

human liver microsomes = test: Metabolism of secnidazole in human liver microsomes; type: in vitro ADME

Structure (SMILES): Cc1ncc([N+](=O)[O-])n1CC(C)O (stereo not drawn) [secnidazole]
- Time-dependent inhibition of ALDH2 (residual ALDH2 catalytic activity) ([1]; preincubation time 0.5): 104
- Time-dependent inhibition of ALDH2 (residual ALDH2 catalytic activity) ([1]; preincubation time 1): 103
- Time-dependent inhibition of ALDH2 (residual ALDH2 catalytic activity) ([1]; preincubation time 2): 101
- Time-dependent inhibition of ALDH2 (residual ALDH2 catalytic activity) ([1]; preincubation time 3): 104
- Time-dependent inhibition of ALDH2 (residual ALDH2 catalytic activity) ([1]; preincubation time 4): 101
- Time-dependent inhibition of ALDH2 (residual ALDH2 catalytic activity) ([1]; preincubation time 8): 110
- Time-dependent inhibition of ALDH2 (residual ALDH2 catalytic activity) ([1]; preincubation time 16): 113
- Time-dependent inhibition of ALDH2 (residual ALDH2 catalytic activity) ([1]; preincubation time 24): 131
- Time-dependent inhibition of ALDH2 (in words) ([1]; preincubated with ALDH2 enzyme and NAD+ from 1 to 24 minutes, secnidazole at 10 or 100 μmol/L): little or no time‐dependent inhibition
- IC50 (CYP2C8): > 500 µM
- IC50 (CYP2B6): > 5000 µM
- direct inhibition (in words) (CYP2B6; HLM, CYP2B6): some clear concentration‐dependent inhibition at higher concentration
- IC50 (CYP1A2): > 500 µM
- cumulative urinary excretion of free and conjugated secnidazole [2]: approximately 50%
- metabolism in human plasma in vitro [3]: no evidence of secnidazole metabolism
- IC50 (CYP2A6): > 500 µM
- metabolism in HLMs (in words) (human liver microsomes; concentrations up to 6400 µmol/L): very low metabolism
- Km (human liver microsomes; read-out: Km for M2 formation, rate linear with substrate concentration): > 6.4 mM
